In US8299061B2, “Inhibitors of diacylglycerol acyltransferase” (Eli Lilly and Company, priority 2009, dated 2012):
“And” between values parts separate entries of the source, which are not always exact repeats. Equal values may be shown once. Read-outs that look alike come from different tables or passages of the source.

What was measured:
recombinant human DGAT-1 = molecular target: T1, recombinant human DGAT-1 (Homo sapiens, UniProt O75907); experiment: DGAT-1 enzyme assay; format: biochemical; details: recombinant human DGAT-1 expressed in sf9 insect cells; geometric mean±standard error
T1 construct: made in house; host or cells: sf9 insect cells (recombinant baculovirus); crude cell homogenate used
T1 sequence (O75907 1-488): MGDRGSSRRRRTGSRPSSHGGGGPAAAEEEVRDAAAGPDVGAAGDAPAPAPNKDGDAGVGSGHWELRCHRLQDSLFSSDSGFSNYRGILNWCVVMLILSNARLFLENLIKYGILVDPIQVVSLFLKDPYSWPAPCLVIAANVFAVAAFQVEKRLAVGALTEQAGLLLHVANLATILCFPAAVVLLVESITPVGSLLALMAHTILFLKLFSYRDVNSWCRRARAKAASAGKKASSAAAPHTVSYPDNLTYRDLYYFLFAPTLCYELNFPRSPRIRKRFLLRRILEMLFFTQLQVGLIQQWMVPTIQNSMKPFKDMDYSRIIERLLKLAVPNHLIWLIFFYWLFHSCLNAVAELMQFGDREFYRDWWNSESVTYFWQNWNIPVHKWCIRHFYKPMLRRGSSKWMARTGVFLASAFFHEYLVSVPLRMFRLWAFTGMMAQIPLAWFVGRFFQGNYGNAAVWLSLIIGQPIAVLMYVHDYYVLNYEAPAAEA
Method: DGAT-1 enzyme assay Inhibitors of DGAT-1 are identified with an in vitro enzymatic assay which uses recombinant human DGAT-1 expressed in sf9 insect cells as an enzyme source. DGAT-1 enzyme is produced by infecting cells with recombinant baculovirus containing a DGAT-1 expression vector. After 48 hr infection cells are harvested by centrifugation, resuspended in cold 20 mM NaCl, and disrupted with a Dounce homogenizer. Fifteen milliliters of 20 mM NaCl are added to a cell pellet for each liter of infected cell suspension. DNA in the homogenate is sheared by pulling the cell extract through a 25 gauge needle. DGAT-1 activity in the baculovirus infected cell homogenate is compared to homogenate from uninfected cells to assess background enzymatic activity associated with sf9 cells.
Assays are performed in 96 well plates using a modification of the assay described by Coleman (Methods in Enzymology 209. pp 98-102 (1992)). Briefly, compounds are tested in a 1:3 serial dilution scheme from 100 μM to 1.7 nM final concentration. The enzyme reaction mixture contains substrates 250 μM 1,2-sn-diacylglycerol (Avanti Polar Lipids), 5 μM ^14C oleoyl CoA, and 45 μM oleoyl CoA in an aqueous buffer containing 150 mM Hepes buffer pH7.4, 0.7% vol/vol Triton® X-100 and Complete™ protease inhibitors. […] One hundred microliters of scintillation cocktail is then added and, after 8 hr, plates are counted. […]

mouse 3T3-L1 adipocytes = experiment: Adipocyte triglyceride synthesis assay; format: cell-based; details: inhibition of triglyceride synthesis, 14C acetate, 4 hours, geometric mean±standard error
Method: Adipocyte Triglyceride Synthesis Assay: This assay measures the ability of compounds to inhibit triglyceride synthesis in intact mouse 3T3-L1 adipocytes. Undifferentiated 3T3-L1 cells are cultured in 96 well plates at a density of 25,000 cells per well using standard tissue culture conditions. After two days in culture, the cells are differentiated to adipocytes by placing them in media supplemented with 0.5 mM 1-methyl-3-isobutylxanthine (IBMX), 10 μg/mL insulin and 1 μM dexamethasone. After five days in culture, cells are grown in media supplemented only with 10 μg/mL insulin. Assays are performed after cells have been in culture 12 days. To begin the assay, culture media is removed from the cells and replaced with 50 μl OptiMEM® media containing 0.375 μCi/well ^14C acetate. Cells are then incubated at 37° C. in 7.5% CO2 for 4 hours. At the end of this incubation, media is removed, cells are washed once with Hank's balanced salts, and 25 μl of 0.7% Triton® X-100 is added to each well and allowed to extract the cells for 5 minutes. At the end of this period, 75 μl of a solution containing 58.8% isopropanol, 14.7% n-heptane, 11.5% water, 12.5% ethanol, and 2.5% 1N sodium hydroxide is added to each well and plates are shaken on an orbital shaker for 2 minutes. 100 μl of heptane is then added and plates are shaken for another 2 minutes. […]

Male Sprague-Dawley rats = experiment: Oil bolus absorption model (plasma triglyceride after olive oil bolus); format: in vivo, rat; details: for ED80: dose reducing increase in plasma triglyceride by 80%
Method: Male Sprague-Dawley rats (280-320 g, n=6 per test group) on regular chow are acclimated to the test vivarium for at least 1 week prior to compound evaluation. Prior to compound testing, rats are fasted for 16 hour. Compounds are administered via oral gavage in a vehicle of 10% ethanol/90% corn oil at a volume of 1 ml/kg. Four hours after compound administration, a 0.5 ml blood sample is collected via the tail vein. Immediately following the 4 hour blood collection, a 3.0 ml bolus of olive oil is administered by oral gavage. A final blood sample is collected from the tail vein 6 hours after compound administration. Plasma is prepared from blood samples by centrifugation and analyzed for both triglyceride content, using a Hitachi 912 clinical chemistry analyzer, and test compound levels. The effective dose that reduces the increase in plasma triglyceride by 50% (ED50) and 80% (ED80) is determined DGAT-1 inhibition is indicative of the ability of the test compound to inhibit the increase in plasma triglyceride that occurs between hours 4 and 6 of the study (between 14 and 16 hours in the modified model) in vehicle treated (control) animals. In a modification of the model, compound is administered 14 hours prior to the first blood sample collection and oil bolus administration. The final blood sample is collected at 16 hours after dosing. In this longer duration version of the model, the 10% ethanol/90% corn oil vehicle is administered, without compound, at 10 hours after compound dosing to be consistent with the shorter duration version of the model. Compounds are tested substantially by the oil bolus absorption rat model method described herein.
For the compound N-[1-[[(4R)-5,6-dihydro-4H-imidazo[1,2-a][1]benzazepin-4-yl]carbamoyl]cyclopropyl]-4-ethoxy-benzamide (Examples 1, 3, 57), the three experiments used doses of 1, 3, 10 and 30 mg/kg. For the compound 4-Chloro-N-[1-[[(4R)-5,6-dihydro-4H-imidazo[1,2-a][1]benzazepin-4-yl]carbamoyl]cyclopropyl]benzamide (Examples 2, 21, 58), experiment 1 used doses of 0.3, 1, 3, 10 and 30 mg/kg, and for experiments 2 and 3, the doses used are 0.1, 0.3, 1, 3 and 10 mg/kg.
The data are analyzed using meta-analysis. The overall ED50 (ED80) is estimated as the weighted average of ED50 (ED80) from individual studies, with the weights being the inverse of variance of ED50 (ED80) estimates. The homogeneity Q-test is performed. If the test is significant at 0.10 level, a mixed-effect model is used to include both inter-study and intra-study variability. The weights are adjusted to the inverse of the sum of inter-study variance and the intra-study variance of ED50 (ED80) from individual studies. The inter-study variance is estimated by the Paule-Mandel estimator. (References: Sutton, A. J., Jones, D. R., Abrams, K. R., Sheldon, T. A., and Song, F., Methods for Meta-analysis in Medical Research London, John Wiley, ISBN 0-471-49066-0 (2000). Dersimonian R., and Kacker, R., Random-effects model for meta-analysis of clinical trials: An update, Contemporary Clinical Trials 28 p 105-114 (2007).

[1] = test system: C57 B16 mice fed a high fat diet; experiment: Diet-induced obese mouse model; format: in vivo; details: twice daily oral gavage, meta-analysis; for Vehicle controlled percent Fat Mass Change, Mean: QNMR; for Vehicle controlled percent Food Intake Change, Mean: cumulative food intake
Method: Diet-induced obese mouse model: To measure effects on body weight and food intake, compounds are tested in C57 B16 mice fed a high fat diet (Research Diets D12492). Fourteen week old mice raised on D12492 are acclimated to the test vivarium for 2 weeks on a 12 hour light/dark cycle. Seven days prior to compound testing, animals are dosed by oral gavage either once or twice daily with a suitable vehicle in order to accustom the mice to handling. On day 6 of vehicle dosing, body composition is measured by quantitative nuclear magnetic resonance (QNMR). On day seven of vehicle dosing, animals are randomized by body weight and sorted into test groups (n=8). Compound dosing, twice daily, commences after 7 days of vehicle dosing. Animals are given compound 30 minutes prior to the dark phase of the dark/light cycle and, if desired, again 5.5 hours into the dark phase. Compound dosing continues for 15 to 22 days during which time food intake and body weight are measured daily. On day 14 of the experiment, body composition is measured for a second time by QNMR. On day 15, terminal bleeds are taken from two animals per test group at 0, 2, 4, and 6 hours after the final dose for measurement of test compound levels in plasma.
The data are analyzed using a meta-analysis. For the percent Body Weight gain (loss) and percent Fat Mass gain (loss), the measure of treatment effect in the meta-analysis is the group mean difference between treatment and control group. For the percent Cumulative Food Intake Change from Control (% CFICFC), the measure of treatment effect is % CFICFC itself. The overall treatment effect is estimated as the weighted average of treatment effect from individual studies, with the weights being the inverse of variance of individual study's treatment effect estimates. The homogeneity Q-test is performed. If the test is significant at 0.10 level, then a mixed-effect model is used to include both inter-study and intra-study variability. The weights are adjusted to the inverse of the sum of inter-study variance and the intra-study variance of treatment effect estimates from individual studies. The inter-study variance is estimated by the Paule-Mandel estimator. (References: Sutton, A. J., Jones, D. R., Abrams, K. R., Sheldon, T. A., and Song, F., Methods for Meta-analysis in Medical Research London, John Wiley, ISBN 0-471-49066-0 (2000). Dersimonian R., and Kacker, R., Random-effects model for meta-analysis of clinical trials: An update, Contemporary Clinical Trials 28 p 105-114 (2007). Compounds are tested substantially by the diet-induced obese mouse model method described herein.
For N-[1-[[(4R)-5,6-dihydro-4H-imidazo[1,2-a][1]benzazepin-4-yl]carbamoyl]cyclopropyl]-4-ethoxy-benzamide (Examples 1, 3, 57), three experiments were performed at doses of 1, 3, 10 and 30 mg/kg (two of the experiments) and 3 and 30 mg/kg (one of the experiments). Because the 3 and 30 mg/kg doses are common to the experiments, these doses are used to compare the results.
For 4-Chloro-N-[1-[[(4R)-5,6-dihydro-4H-imidazo[1,2-a][1]benzazepin-4-yl]carbamoyl]cyclopropyl]benzamide (Examples 2, 21, 58), two experiments were performed at doses of 3, 10, 30 and 60 mg/kg and at 0.3, 1, 3 and 10 mg/kg. For each of the experiments, the doses are given twice per day. Because the 3 and 10 mg/kg doses are common to the experiments, these doses are used to compare the results.

Row | IC50 (recombinant human DGAT-1) [nM] | Compound | EC50 (mouse 3T3-L1 adipocytes) [nM] | ED50 (Male Sprague-Dawley rats; 16 hour oil bolus study, rat, oral gavage, dose reducing increase in plasma triglyceride by 50%, individual experiments) | ED80 (Male Sprague-Dawley rats; 16 hour oil bolus study, rat, oral gavage, individual experiments) | ED80 Mean (meta-analysis) (Male Sprague-Dawley rats; 16 hour oil bolus study, weighted average of three experiments) [mg/kg] | ED50 (Male Sprague-Dawley rats; Rattus norvegicus, 16 h, 16 hour oil bolus study, weighted average of three experiments, read-out: ED50 Mean (meta-analysis)) [mg/kg] | Vehicle controlled percent Fat Mass Change, Mean ([1]; 3 mg/kg − control) [%] | Vehicle controlled percent Food Intake Change, Mean ([1]; 3 mg/kg − control) [%] | Vehicle controlled percent Body Weight Change, Mean ([1]; 3 mg/kg − control) [%] | Vehicle controlled percent Fat Mass Change, Mean ([1]; 30 mg/kg − control) [%] | Vehicle controlled percent Food Intake Change, Mean ([1]; 30 mg/kg − control) [%] | Vehicle controlled percent Body Weight Change, Mean ([1]; 30 mg/kg − control) [%] | ED50 (Male Sprague-Dawley rats; 6 hour oil bolus study, rat, oral gavage, dose reducing increase in plasma triglyceride by 50%, individual experiments) | ED80 (Male Sprague-Dawley rats; 6 hour oil bolus study, rat, oral gavage, individual experiments) | ED80 Mean (meta-analysis) (Male Sprague-Dawley rats; 6 hour oil bolus study, weighted average of experiments) [mg/kg] | ED50 (Male Sprague-Dawley rats; Rattus norvegicus, 6 h, 6 hour oil bolus study, weighted average of experiments, read-out: ED50 Mean (meta-analysis)) [mg/kg] | Vehicle controlled percent Fat Mass Change, Mean ([1]; 10 mg/kg − control) [%] | Vehicle controlled percent Food Intake Change, Mean ([1]; 10 mg/kg − control) [%] | Vehicle controlled percent Body Weight Change, Mean ([1]; 10 mg/kg − control) [%]
1 | 134 ± 8 | CCOc1ccc(C(=O)NC2(C(=O)N[C@@H]3CCc4ccccc4-n4ccnc43)CC2)cc1 [Example 1, N-[1-[[(4R)-5,6-dihydro-4H-imidazo[1,2-a][1]benzazepin-4-yl]carbamoyl]cyclopropyl]-4-ethoxy-benzamide] | 175 | 1.71 mg/kg and 12.37 mg/kg and 2.92 mg/kg | 5.52 mg/kg and 19.61 mg/kg and 7.64 mg/kg | 7.34 | 5.3 | −6.69 | −10.11 | −4.74 | −8.24 | −11.35 | −5.31 |  |  |  |  |  |  | 
2 | 89 ± 0.98 | O=C(NC1(C(=O)N[C@@H]2CCc3ccccc3-n3ccnc32)CC1)c1ccc(Cl)cc1 [Example 2, 4-Chloro-N-[1-[[(4R)-5,6-dihydro-4H-imidazo[1,2-a][1]benzazepin-4-yl]carbamoyl]cyclopropyl]benzamide] | 213 |  |  |  |  | −9.53 | −11.31 | −4.65 |  |  |  | 0.26 mg/kg and 0.73 mg/kg and 0.57 mg/kg | 0.45 mg/kg and 2.22 mg/kg | 0.54 | 0.32 | −8.41 | −8.43 | −4.54
